Measurements published in paper PMC9694777, “Fractionation and Extraction Optimization of Potentially Valuable Compounds and Their Profiling in Six Varieties of Two Nicotiana Species” (Molecules, 2022).

Experiment: physchem
Description: Determination of the small molecule content in a complex plant matrix depends on the understanding of minimum solubility in the chosen extraction solvent. […] Often, tests on mixture are hardly reproducible on pure compounds if this aspect is not routinely considered in the workflow. We performed a general testing of best solvent systems to compare a wide range of small molecules of interest to understand the limitations of general approaches within a complex plant matrix such as Nicotiana.
For each of the 29 reference compounds, 2 mg was weighed into a 15 mL glass tube and dissolved in the minimum amount of the test solvent by gradually adding the solvent with a micropipette until complete dissolution or to a final volume of 10.0 mL. Seven solvents with polarities from nonpolar to polar were chosen for the test: hexane (C6H14), CH2Cl2, CH2Cl2/MeOH (4:1, v/v), EtOH, MeOH, MeOH/H2O (7:3, v/v), and H2O. The consumed solvents and their volumes were recorded for each reference compound.

Vitamin E
Solubility in C6H14: 215 mg/mL
Solubility in CH2Cl2: 208 mg/mL
Solubility in CH2Cl2/MeOH (4:1): 241 mg/mL
Solubility in EtOH: 43.0 mg/mL
Solubility in H2O: NS (key: NS: not soluble, insoluble in the solvent at the tested concentration range (0.19–558 mg/mL))
Solubility in MeOH: 31.2 mg/mL
Solubility in MeOH/H2O (7:3): 0.23 mg/mL
